Source: patent US20260124194A1 (priority 2022, published 2026)
“And” between values parts separate entries of the source, which are not always exact repeats. Equal values may be shown once. Marks after values point to notes of the source that are not given here.

How the values were obtained:
[1] = system: patients with chronic intestinal pseudo-obstruction; details: prucalopride 2 mg, 12-week periods, cited from earlier work
[2] = system: Prp-SCA7-92Q mice; experiment: Body weight and tolerability in Prp-SCA7-92Q mice; assay type: in vivo; details: 1 and 3 mg/kg, 5 weeks of treatment
Text: A normal control (NC) group of untreated wild-type mice was also examined. No significant differences were noticed between groups (FIG. 13).

[3] = system: subjects with idiopathic Chronic Intestinal Pseudo-Obstruction (CIPO); details: in vivo
Text: Visits where assessed at the beginning of the screening period (Visit 1), at the beginning and at the end of each period of treatment (Visit 2 to Visit 9) and at the end of the follow-up period (Visit 10).
PLA=matching placebo once daily for 4 weeks.
Gastrointestinal symptom severity (abdominal pain, bloating, nausea and vomiting) and bowel habit (weekly recall) were registered on Day −1 and weekly after randomization, during both treatment and washout periods, as appropriate according to the Schedule of Assessments using an e-diary until end of follow up period.
Subjects were instructed to take three capsules of medication orally, once daily at approximately the same time each morning, on an empty stomach, with water.
The Primary efficacy endpoints was to evaluate the change in weekly global gastrointestinal symptoms average index score (WGGSAIS) from start to the end of each treatment period.
The WGGSAIS was obtained by averaging the scores for each of the 4 symptoms assessed weekly: abdominal pain, bloating, nausea and vomiting, with lower scores representing better health. If at least 2 symptoms were assessed, the average score was calculated, otherwise, it was considered missing.
Change between the end of treatment and pre-treatment WGGSAIS value≤−1 point was computed and considered a “success” while changes >−1 were considered a “failure”. The proportion of subjects with a 1-point improvement in WGGSAIS is summarized by treatment sequence, period and timepoint (weekly evaluation by e Diary.
Considering the evaluable pairs, the proportions of pairs of observations with 1-point improvement in WGGSAIS is summarized by treatment and timepoint. […]
Considering the evaluable pairs, the number of pseudo-obstruction episodes occurring within each treatment period and number of pseudo-obstruction episodes occurring within wash-out/follow up was considered as categorical variables classified as 0, 1, 2 and >2 and are summarized by treatment.
The same descriptive analyses described above are repeated focusing on change from the end of each treatment period to the end of each week of washout period or follow-up period instead of the change between post-treatment and pre-treatment.

[4] = system: subjects with idiopathic Chronic Intestinal Pseudo-Obstruction (CIPO)
Procedure: Safety was assessed at each visit measuring and evaluating changes from the baseline of the following parameters: • Vital signs (including blood pressure, pulse, temperature). • Physical examination also including height and weight. • Routine laboratory parameters (hematocrit, hemoglobin, red blood cell count, white blood cell count with differential count and platelet count for hematology; glycaemia, total cholesterol, triglycerides, serum creatinine, urea or blood urea nitrogen [BUN], sodium, potassium, chloride, AST, ALT, Gamma-GT, alkaline phosphatase, total and fractioned bilirubin (direct and indirect), erythrocyte sedimentation rate, PT (or INR), aPTT for biochemistry; specific gravity, pH, protein, glucose, ketones, hemoglobin, nitrite, bilirubin, urobilinogen and microscopic examination for urinalysis). • Triplicate ECG • Adverse events (AEs). • Withdrawal from study due to AEs.
Adverse events starting on or after the first intake of investigational product were considered treatment-emergent AEs (TEAEs). Verbatim terms for AEs were coded using the most current version of Medical Dictionary for Regulatory Activities (MedDRA) coding. […]

[5] = system: Prp-SCA7-92Q transgenic mice; experiment: Morphometric gut evaluation (HE histological score) in Prp-SCA7-92Q transgenic mice; assay type: in vivo; details: Prp-SCA7-92Q mice
Procedure: After mice were sacrificed by CO2 inhalation, the small intestine and colon tissue were cut, fixed for 48 hours with 10% neutral buffered formalin. The paraffin sample was prepared by dehydration with a series of gradient alcohol solutions according to standard methods known in the field. Tissues were cut into 4 μm sections by rotary microtome and baked for 2 hours at 60° C. After (HE) hematoxylin-eosin (HE) images were obtained from each animal at 20× magnification for histological analyses by fully automatic digital pathology slide-system (KF BIO, KF-PRO-005, China) using K-viewer Imaging software (KF BiO, V1, China).
The presence of inflammation and ulcers was quantified using indicators (i.e. ulcers=% area with intestinal mucosal damage, inflammation=necrosis, bleeding) to which a score from 0 to 3 was associated. Inflammation and ulcers scoring were awarded after section evaluation and analysis.

## COCCCN1CCC(NC(=O)c2cc(Cl)c(N)c3c2OCC3)CC1 [prucalopride]
[1]
  stool frequency and consistency: did not affect
[1]; four completers
  patients with significantly improved bloating: four
  patients with significantly improved nausea: two
  patients with significantly improved pain: three of four patients
  patients with significantly improved vomiting: one

## CC(C)n1c(=O)c(C(=O)N[C@H]2C[C@H]3CC[C@@H](C2)N3C[C@@H](O)CN(C)S(C)(=O)=O)cc2ccccc21 [velusetrag, 1-isopropyl-2-oxo-1,2-dihydroquinoline-3-carboxylic acid {(1S,3R,5R)-8-[(R)-2-hydroxy-3-(methanesulfonyl-methyl-amino)propyl]-8-azabicyclo[3.2.1]oct-3-yl}amide]
[2]
  tolerability: body weight and lethality throughout treatment: no reduction in body weight and lethality was observed
[3]
  WGGSAIS total score, mean change from end of treatment at the end of wash-out: 0.54±0.736
  WGGSAIS, mean: 1.707 and 1.608 and 1.367 and 1.458
  WGGSAIS, mean change from pre-treatment to end of treatment: −0.529±0.7956
  WGGSAIS, mean difference between treatments (velusetrag minus placebo): −0.342+0.9343
[4]; Safety Set (placebo emergent 38)
  total TEAEs classified as velusetrag emergent: 29
[4]; Safety Set, 17 subjects (placebo emergent 58.82%)
  subjects with TEAEs classified as velusetrag emergent, %: 41.18%
[5]; 1 mg/kg po once daily 5 weeks
  Inflammation (count of necrosis) score, DSI: 1.6 ± 0.1
  Inflammation (count of necrosis) score, Proximal Colon: 1.5 ± 0.1
  Total score, DSI: 2.4 ± 0.1
  Total score, Proximal Colon: 2.4 ± 0.1
  Ulcers (mucosal damage) score, DSI: 0.8 ± 0.1^∘
  Ulcers (mucosal damage) score, Proximal Colon: 0.9 ± 0.05
[5]; 3 mg/kg po once daily 5 weeks
  Inflammation (count of necrosis) score, DSI: 1.2 ± 0.1*^∘∘∘
  Inflammation (count of necrosis) score, Proximal Colon: 1.1 ± 0.1*^∘∘∘
  Total score, DSI: 1.8 ± 0.1**^∘
  Total score, Proximal Colon: 1.5 ± 0.1*^∘∘∘
  Ulcers (mucosal damage) score, DSI: 0.6 ± 0.1^∘
  Ulcers (mucosal damage) score, Proximal Colon: 0.4 ± 0.01^∘∘
